Measurements from patent publication US9046527B2, “Mutated SUMO isoforms and uses thereof” (Université De Montréal, priority 2009, dated 2015).

T1: PML (Homo sapiens, UniProt P29590)
T1 construct: tryptic peptides from NTA-purified His-SUMO3 proteins of HEK293 cells treated or not with As2O3; endogenous in cells; host or cells: HEK293 cells expressing the His-SUMO3 mutant
T1 sequence (P29590 1-882): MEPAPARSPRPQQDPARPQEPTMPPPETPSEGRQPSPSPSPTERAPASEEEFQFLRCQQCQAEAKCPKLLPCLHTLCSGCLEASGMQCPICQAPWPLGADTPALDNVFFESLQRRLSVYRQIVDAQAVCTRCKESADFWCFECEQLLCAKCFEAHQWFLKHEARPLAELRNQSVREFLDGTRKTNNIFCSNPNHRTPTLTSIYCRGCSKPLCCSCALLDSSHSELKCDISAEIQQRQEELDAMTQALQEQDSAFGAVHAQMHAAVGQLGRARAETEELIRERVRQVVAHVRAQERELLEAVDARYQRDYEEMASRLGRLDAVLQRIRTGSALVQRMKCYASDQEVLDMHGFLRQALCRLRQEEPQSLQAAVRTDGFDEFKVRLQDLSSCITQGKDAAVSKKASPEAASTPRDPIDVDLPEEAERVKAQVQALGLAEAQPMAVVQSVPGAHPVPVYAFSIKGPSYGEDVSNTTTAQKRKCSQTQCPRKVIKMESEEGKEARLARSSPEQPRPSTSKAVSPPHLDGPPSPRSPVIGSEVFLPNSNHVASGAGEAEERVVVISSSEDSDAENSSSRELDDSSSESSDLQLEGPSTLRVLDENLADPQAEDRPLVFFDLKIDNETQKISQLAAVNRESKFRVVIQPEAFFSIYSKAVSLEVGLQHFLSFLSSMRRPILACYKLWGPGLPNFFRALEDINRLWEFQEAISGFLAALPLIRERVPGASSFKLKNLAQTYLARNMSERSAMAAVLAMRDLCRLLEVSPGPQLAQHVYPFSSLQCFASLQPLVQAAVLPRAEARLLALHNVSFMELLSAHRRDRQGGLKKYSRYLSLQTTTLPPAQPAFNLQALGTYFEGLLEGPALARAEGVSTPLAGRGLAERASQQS


Assays:
[1] = molecular target: T1, PML; experiment: LC-MS/MS of tryptic peptides from NTA-purified His-SUMO3 proteins of HEK293 cells treated or not with As2O3; format: cell-based
Protocol: FIG. 21 is a scatter plot of tryptic peptides from NTA-purified His-SUMO3 proteins of HEK293 cells treated or not with As2O3.
(§1) SUMOylated proteins were purified from 10^9 cells of stably expressing His6-SUMO1 mutant; half of cell culture was treated with 1 μM As2O3 during 4 hours. Cells were harvested, washed with PBS and lysed with 15 mL of Buffer A (6 M guanidinium-HCl, 0.1 M NaH2PO4, 0.01 M Tris-HCl, pH 8.0, 10 mM-mercaptoethanol). The lysate was sonicated, centrifuged at 16 000 g for 30 minutes and filtered on 0.45 μm and mixed with 500 μL Ni^2+-NTA agarose beads (Invitrogen) pre-washed with lysis buffer and incubated overnight at room temperature on rotating wheel. The NTA beads were successively washed with the following solutions: buffer A, buffer B (8 M Urea, 0.1 M NaH2PO4, 0.01 M Tris-HCl, pH 6.3, 10 mM-mercaptoethanol), buffer B plus 0.2% Triton X-100, twice with buffer B. His SUMO proteins were eluted from the NTA beads using 200 mM imidazole, 0.15 M Tris-HCl, pH 6.7, 5% Glycerol. An example of the enriched His6-SUMO1 mutant proteins is shown on FIG. 20 following SDS-PAGE separation and gel visualisation using silver staining and anti-His immonublot.
This scatter plot compares the abundance of more than 4500 peptide ions, of which approximately 45 correspond to SUMOylated tryptic peptides (blue circles). […]

[2] = system: PML-nuclear bodies in HEK293 human cells; experiment: Immunofluorescence microscopy: co-localization of PML-Yellow Fluorescence Protein with His6-SUMO to nuclear bodies; format: cell-based; details: HEK293, incubation with 1 μM As2O3
From the text: Immunofluorescence microscopy of HEK293 human cells showing co-localization of PML-Yellow Fluorescence Protein with His6 SUMO1 WT (top) and Q92R mutant (bottom) to nuclear bodies. […] DAPI staining (nucleus).
Immunofluorescence microscopy of HEK293 human cells showing co-localization of PML-Yellow Fluorescence Protein with His6-SUMO1 WT, His6-SUMO1 mutant, His6-SUMO2 WT, His6-SUMO2 mutant, His6-SUMO3 WT, and His6-SUMO3 mutant to nuclear bodies, DAPI staining (nucleus).
The functional activity of the wild type and SUMO mutants was also determined from immunofluorescence microscopy by monitoring the recruitment of the SUMOylated promyelocytic leukaemia (PML) substrate to nuclear bodies following treatment of HEK293 cells with As2O3 (FIG. 14). The visualization of all SUMO mutants using this immunofluorescence assay also confirmed the functional activity of all three SUMO isoforms (FIG. 15).

[3] = system: protein SUMOylation; experiment: NTA purification of His6-SUMO1 mutant proteins, silver-stained SDS-PAGE and immunoblot anti-His; format: cell-based, human; details: cells stably expressing His6-SUMO1 mutant, stimulation with As2O3
Protocol: FIG. 20 illustrates gel electrophoresis separation of His6-SUMO1 mutant proteins following NTA purification. Silver-stained SDS-PAGE and immunoblot anti-His show an enrichment of His6-SUMO1 proteins as indicated from the trail of protein bands at the top of the gel.
as §1

[4] = system: Ubiquitin-conjugating enzyme E2; experiment: In vitro SUMOylation assay; format: biochemical; details: Coomassie or silver stained gel
Protocol: For in vitro SUMOylation, the reaction mixture comprised 20 μL of reaction buffer (20 mM NH4CO3 pH 9, 20 mM NaCl, 0.5 mM DTT), 1 μg recombinant and purified SUMO proteins, 0.5 μg of substrate E2-25K (Boston Biochem) or RanGAP fragment (Boston Biochem), 0.1 μg SASE1/SAE2 heterodimer (Boston Biochem), 0.5 μg conjugating enzyme hUbC9 (Boston Biochem) with or without Mg-ATP solution (Boston Biochem) at 5 mM. The reaction mixture was incubated at 37° C. for 1 hour and subsequently stopped by adding an equal volume of Laemmli Buffer. The reaction mixture was analysed separated by SDS-PAGE and visualized using Western Blotting (2 μl), coomassie staining (10 μL) or silver staining (5 μL) as shown in FIGS. 7 and 8.
Protein extracts were subjected to electrophoresis through a 4-12% NuPAGE Bis-Tris polyacrylamide gel (Invitrogen, Burlington, ON, Canada) under denaturing conditions. After electrophoresis, proteins were fixed within the polyacrylamide gel by incubating the entire gel in 5% (v/v) acetic acid in a 1:1 (v/v) water:ethanol solution. For silver staining, the gel was first sensitized for 1 minute using an aqueous solution of 0.02% sodium thiosulfate (Na2S2O3) unless otherwise indicated. Staining was performed by incubating the gel in 0.1% (v/v) silver nitrate (AgNO3) in water for 25 minutes at 4° C. Finally, the gel was developed in 3% (w/v) sodium carbonate (Na2CO3, pH: 11.4) containing 0.05% formalin (v/v) in water. The staining was then stopped with a solution of 5% (v/v) acetic acid in water. For Coomassie blue staining, proteins were fixed after gel separation and stained in a one-step procedure by incubating the entire gel in 0.1% (w/v) Coomassie Brilliant Blue R-250 in a 1:8:11 (v/v/v) acetic acid:methanol:water mixture for 1 hour at room temperature (RT). The gel was finally rinsed three times in a 1:4:5 (v/v/v) acetic acid:methanol:water solution at RT to visualize protein bands.

[5] = system: HA-RanGAP; experiment: In vivo SUMOylation assay with transfected HA-RanGAP, immunoblot anti-HA; format: cell-based, human
Protocol: FIG. 9 illustrates immunoblot of in vivo SUMOylation assay using transfected HA-RanGAP as protein substrate. Immunoblots are performed using an antibody that recognized the HA epitope. Immunoblots are presented for His6-SUMO1 (wild type, and mutant Q92R).
SUMO isoform mutants can also be co-transfected in mammalian cells with target protein substrates. For example, RanGAP1, a known SUMOylation target forms a tight complex in association with NUP358 and UBE2I/UBC9. The ubiquitin-conjugating enzyme E2 interacts with UBE2I favoring the conjugation of SUMO1 to RANGAP1, and subsequently stabilizes interactions of SUMOylated RANGAP1 with RANBP2/NUP358. The SUMO1/RANGAP1/UBC9/NUP358 complex associates with nuclear pore complexes (Joseph, J., Tan, S. H., Karpova, T. S., McNally, J. G., and Dasso, M. (2002). SUMO-1 targets RanGAP1 to kinetochores and mitotic spindles. The Journal of cell biology 156, 595-602; Swaminathan, S., Kiendl, F., Korner, R., Lupetti, R., Hengst, L., and Melchior, F. (2004). RanGAP1*SUMO1 is phosphorylated at the onset of mitosis and remains associated with RanBP2 upon NPC disassembly. The Journal of cell biology 164, 965-971). The SUMO isoform mutants are also functional and can be conjugated to RanGAP1 following transfection of these proteins in […] cells, as illustrated in FIG. 9. […]

Molecule	SUMOylated E2 band on stained gel [4]	further results
[AsH3] [As2O3]		abundance of PML peptides ([1]; HEK293, NTA-purified His-SUMO3 proteins, upon As2O3 treatment): significant increased in abundance; increase in SUMOylation of K490 bearing PML peptide ([1]; HEK293 His-SUMO3 mutant, As2O3 treated vs not treated): 8 fold; formation of PML-nuclear bodies [2]: Increase formation of PML-nuclear bodies; protein SUMOylation (His6-SUMO1 protein bands) [3]: Enhanced protein SUMOylation
His6-SUMO1 E93R: recombinant His6-SUMO1 with mutation E93R	SUMOylated E2 is observed as the highest molecular weight band	
His6-SUMO1 Q92R: Substitution of Gln for Arg at position 92 in endogenous SUMO1 protein, N-terminal His6; SEQ ID NO: 4	SUMOylated E2 is observed as the highest molecular weight band	SUMOylated HA-RanGAP band on immunoblot [5]: SUMOylated HA-RanGAP is observed as the highest molecular weight band
His6-SUMO1 Q94R: recombinant His6-SUMO1 with mutation Q94R	SUMOylated E2 is observed as the highest molecular weight band	
His6-SUMO2 Q88R: Substitution of Gln for Arg at position 88 in endogenous SUMO2 protein, N-terminal His6; SEQ ID NO: 8	SUMOylated E2 is observed as the highest molecular weight band	
His6-SUMO3 Q92R/Q93N: Gln to Arg at position 87 and Gln to Asn at position 88 in endogenous SUMO3, N-terminal His6; SEQ ID NO: 12 (protein, listed as Homo sapiens, N-terminal His6) MAHHHHHHGGSMSEEKPKEGVKTENDHINLKVAGQDGSVVQFKIKRHTPLSKLMKAYCERQGLSMRQIRFRFDGQPINETDTPAQLEMEDEDTIDVFRNQTGG	SUMOylated E2 is observed as the highest molecular weight band	
